Test results published in PubChem BioAssay (NCI).
Several values for one entry are separate records, joined by “and”; a condition that tells them apart may be missing. Equal values may be shown once.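 All cell lines were grown in 96-well plates and treated with compound for 48 hours. GI50: concentration for 50% inhibition of growth. Definition used: TGI = concentration required for complete inhibition of growth.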

Key:
Test in all cases: DTP human tumour cell line panel, 48 h
[1] = test system: KM12 colon
[2] = test system: NCI/ADR-RES ovarian
[3] = test system: NCI-H460 lung
[4] = test system: TK-10 renal
[5] = test system: ACHN renal
[6] = test system: RPMI-8226 leukemia
[7] = test system: A498 renal
[8] = test system: EKVX NSCLC
[9] = test system: CAKI-1 renal
[10] = test system: CCRF-CEM leukemia

Row | Compound | TGI [1] | TGI [2] | TGI [3] | TGI [4] | TGI [5] | TGI [6] | TGI [7] | TGI [8] | GI50 [9] | GI50 [10] | TGI [10] | TGI [9] | GI50 [1] | GI50 [2] | GI50 [3] | GI50 [4] | GI50 [5] | GI50 [6] | GI50 [7] | GI50 [8]
1 | COC1=Nc2ccccc2S(=O)(=O)C=C1 | 28.4 µM | 36.2 µM | 37.3 µM | 11.3 µM | 8.83 µM | 4.81 µM | 33 µM | 32.1 µM | 0.256 µM | 2.85 µM | > 100 µM | – | – | – | – | – | – | – | – | –
2 | O=C(NCCCCCCCCNC(=O)c1cccc2ccccc12)c1cccc2ccccc12 | > 100 µM | > 100 µM | > 100 µM | 43.3 µM | 60.8 µM | > 100 µM | 56.8 µM | > 91.7 µM | – | – | > 100 µM | 52.8 µM | – | – | – | – | – | – | – | –
3 | C=C(C)[C@@H]1CC[C@]2(COC3CCCCO3)CC[C@]3(C)[C@H](CC[C@@H]4[C@@]5(C)C=C(C=O)C(=O)C(C)(C)[C@@H]5CC[C@]43C)[C@@H]12 (some centres undefined) | 3.5 µM | 26.9 µM | 4.22 µM | 2.96 µM | 2.52 µM | 8.3 µM | 1.98 µM | 3.32 µM | 1.34 µM | 0.386 µM | 2.57 µM | 2.61 µM | 1.37 µM | 3.16 µM | 2.02 µM | 1.57 µM | 1.26 µM | 1.59 µM | 0.368 µM | 1.62 µM
4 | COc1ccc(-c2cc(-c3cc(OC)c(OC)c(OC)c3)c(C#N)c(N3CCOCC3)n2)cc1O | > 100 µM | > 100 µM | > 96.1 µM | > 100 µM | > 100 µM | 3.6 µM | > 77.9 µM | > 100 µM | 0.866 µM | 6.46 µM | > 77.9 µM | > 100 µM | 3.06 µM | 1.85 µM | 1.07 µM | > 59.8 µM | 3.49 µM | 0.514 µM | > 21.4 µM | 8.95 µM
5 | C[C@H]1C(Oc2ccc(O)cc2)OC2OC3(C)CCC4[C@H](C)CCC1C24OO3 (some centres undefined) | > 82.1 µM | 25.8 µM | 30.5 µM | 37.8 µM | 19 µM | > 63.1 µM | 31.2 µM | 23.1 µM | 18.5 µM | 8.52 µM | > 100 µM | 40.8 µM | 11.4 µM | 8.04 µM | 15.1 µM | 15.9 µM | 3.97 µM | – | 16.7 µM | 6.42 µM
6 | O=C(c1ccccc1)c1nc2ccc(C(F)(F)F)cc2[n+]([O-])c1C(F)(F)F | > 100 µM | > 100 µM | > 100 µM | > 100 µM | > 100 µM | > 100 µM | 45.2 µM | > 100 µM | 30.4 µM | 27 µM | > 100 µM | > 100 µM | 37.3 µM | 27 µM | 23.5 µM | 37.5 µM | 39.3 µM | 16.4 µM | 13.2 µM | 21.1 µM
7 | N#Cc1ccc(C(c2ccc(C#N)cc2)n2cncn2)cc1 | > 5000 µM | > 5000 µM | > 5000 µM | > 5000 µM | > 5000 µM | > 5000 µM | > 5000 µM | > 5000 µM | > 5000 µM | > 5000 µM | > 5000 µM | > 5000 µM | > 5000 µM | > 5000 µM | > 5000 µM | 1310 µM | > 5000 µM | > 5000 µM | – | > 5000 µM
8 | Nc1nc(N)c2nc(CNc3ccc(C(=O)NC(CCCNC(=O)c4ccccc4C(=O)O)C(=O)O)cc3)cnc2n1 (centres undefined) | > 100 µM | > 100 µM | > 100 µM | > 100 µM | > 100 µM | > 100 µM | > 100 µM | > 100 µM | 0.00224 µM | 0.00148 µM | > 100 µM | > 100 µM | < 0.01 µM and 0.00297 µM | 0.00273 µM | 0.00045 µM | 0.031 µM | 0.00181 µM | – | – | –
9 | COc1ccccc1S(=O)(=O)Nc1ccc2c(c1)CN(C)C(=O)N2 | > 100 µM | > 100 µM | > 100 µM | > 95.5 µM and 50 µM | > 100 µM | > 100 µM | 22.6 µM and 10.9 µM | > 100 µM | 0.994 µM and 3 µM | 5.31 µM and 7.05 µM | > 100 µM | > 100 µM | 14.6 µM and 7.41 µM | 29.5 µM and 33.3 µM | 10.6 µM and 13.4 µM | 2.14 µM and 1.45 µM | 4.76 µM and 8.29 µM | 2.16 µM and 1.89 µM | 1.5 µM and 2.25 µM | 20.3 µM
10 | CNC1C(O)C(OC2C(N)CC(N)C(OC3OC(C(C)O)C(O)C(O)C3N)C2O)OCC1(C)O (centres undefined) | > 100 µM | > 100 µM | > 100 µM | > 100 µM | > 100 µM | > 100 µM | > 100 µM | > 100 µM | – | – | > 100 µM | > 100 µM | – | – | – | – | – | – | – | –
11 | Cc1c(NC(=O)OC[C@@H]2COCCN2)cn2ncnc(Nc3ccc4c(cnn4Cc4cccc(F)c4)c3)c12 | > 10 µM and 25.5 µM | > 10 µM and 33.5 µM | > 10 µM and 24 µM | > 10 µM and 15.7 µM | > 10 µM and 15.3 µM | > 10 µM and 28.2 µM | > 10 µM and 15.5 µM | > 10 µM and 14.2 µM | > 10 µM and 1.36 µM | > 10 µM and 11 µM | > 10 µM and 34.3 µM | > 10 µM and 15.5 µM | > 10 µM and 11.5 µM | > 10 µM and 13.1 µM | > 10 µM and 6.57 µM | 0.546 µM and 0.415 µM | 0.576 µM and 0.44 µM | 5.35 µM and 6.35 µM | 0.532 µM and 1.02 µM | 0.716 µM and 0.257 µM
12 | CCOC(=O)c1cc2c(n1Cc1ccccc1)-c1oncc1CC2 | 27.6 µM | 6.3 µM | 11.4 µM | > 100 µM | 89 µM | 30.2 µM | 7.5 µM | 49.5 µM | 3.24 µM | 4.92 µM | > 100 µM | 18.8 µM | 3.49 µM | 2.01 µM | 3.08 µM | 14.4 µM | 5.84 µM | 4.65 µM | 1.55 µM | 5.65 µM
13 | Cc1cc(C)nc(SC2=C(Nc3cccc(Cl)c3C)C(=O)N(Cc3ccccc3)C2=O)n1 | > 160 µM | > 160 µM | > 160 µM | > 160 µM | > 160 µM | > 160 µM | > 160 µM | > 160 µM | > 160 µM | > 160 µM | > 160 µM | > 160 µM | > 160 µM | > 160 µM | > 160 µM | > 160 µM | > 160 µM | > 160 µM | > 160 µM | > 160 µM
14 | COc1ccc(Cn2cc3c(c2-c2cc(OC)c(OC)c(OC)c2)CCc2cnoc2-3)cc1[N+](=O)[O-] | > 93.7 µM | – | > 28.8 µM | > 84.3 µM | > 100 µM | > 29.9 µM | – | > 100 µM | 0.747 µM | 0.788 µM | > 100 µM | > 60.4 µM | 0.583 µM | 0.364 µM | 0.721 µM | 3.57 µM | 2.88 µM | 1.39 µM | 0.617 µM | 1.43 µM
